{"source": "patent US20160244437A1", "about": "“SUBSTITUTED PHENYLALANINE DERIVATIVES” (BAYER PHARMA AKTIENGESELLSCHAFT, priority 2013, published 2016)", "key": {"human and animal plasma": {"test_system": "human and animal plasma", "test": "Determination of anticoagulatory activity: activated partial thromboplastin time (aPTT) in plasma", "conditions": "concentration of test substance which brings about a 1.5-fold extension of the aPTT; plasma in vitro, C.K. Prest kit", "method_in_brief": "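Citrated plasma (human, mouse, rat, rabbit, pig, dog) incubated with varying compound concentrations and cephalin/kaolin PTT reagent for 3 minutes at 37° C.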"}, "human factor XIa": {"target": "T1, human factor XIa (Homo sapiens, UniProt P03951)", "T1 construct": "purchased Kordia", "T1 sequence (P03951 388-625 limits assumed)": "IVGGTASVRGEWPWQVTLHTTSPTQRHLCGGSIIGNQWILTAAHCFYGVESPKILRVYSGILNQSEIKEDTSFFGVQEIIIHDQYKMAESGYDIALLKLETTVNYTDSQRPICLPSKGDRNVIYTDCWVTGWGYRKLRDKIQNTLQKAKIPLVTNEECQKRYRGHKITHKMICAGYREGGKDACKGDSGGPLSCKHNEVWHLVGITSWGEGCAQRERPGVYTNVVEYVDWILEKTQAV", "T1 sequence (P03951 19-387 partner limits assumed)": "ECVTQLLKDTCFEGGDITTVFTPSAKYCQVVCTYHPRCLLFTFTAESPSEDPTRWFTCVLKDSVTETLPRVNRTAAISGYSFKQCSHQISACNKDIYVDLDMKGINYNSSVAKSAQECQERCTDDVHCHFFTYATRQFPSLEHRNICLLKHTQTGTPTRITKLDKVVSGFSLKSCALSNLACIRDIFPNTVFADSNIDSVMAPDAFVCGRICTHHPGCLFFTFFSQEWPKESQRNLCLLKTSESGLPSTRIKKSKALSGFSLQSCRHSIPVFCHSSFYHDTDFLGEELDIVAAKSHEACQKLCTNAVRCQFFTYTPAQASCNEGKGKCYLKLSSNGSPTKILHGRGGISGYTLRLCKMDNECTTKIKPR", "test": "Measurement of FXIa inhibition (fluorogenic peptide substrate Boc-Glu(OBzl)-Ala-Arg-AMC)", "format": "biochemical", "conditions": "factor XIa from Kordia 0.45 nM, 15 min pre-incubation, 30 min at 22° C., fluorescence"}}, "note": "Counter-ions that a name gives are not always drawn."}
{"smiles": "Cc1ccc(S(=O)(=O)N2CCOCC2)cc1-c1cccc(C[C@H](NC(=O)[C@H]2CC[C@H](CN)CC2)C(=O)Nc2ccc(-c3noc(=O)[nH]3)cc2)c1", "note": "[Example 52, trans-4-(Aminomethyl)-N-[(2S)-3-[2′-methyl-5′-(morpholin-4-ylsulphonyl)biphenyl-3-yl]-1-oxo-1-{[4-(5-oxo-4,5-dihydro-1,2,4-oxadiazol-3-yl)phenyl]amino}propan-2-yl]cyclohexanecarboxamide hydrochloride]", "values": [{"measurement": "aPTT", "setting": "human and animal plasma", "result": 0.06, "unit": "µmol/L"}, {"measurement": "IC50", "setting": "human factor XIa", "result": 1.8, "unit": "nM"}]}
{"smiles": "CN1CCN(C(=O)c2cccc(-c3cccc(C[C@H](NC(=O)[C@H]4CC[C@H](CN)CC4)C(=O)Nc4ccc(-c5nnn[nH]5)cc4)c3)c2)CC1", "note": "[Example 31, trans-4-(Aminomethyl)-N-[(2S)-3-{3′-[(4-methylpiperazin-1-yl)carbonyl]biphenyl-3-yl}-1-oxo-1-{[4-(1H-tetrazol-5-yl)phenyl]amino}propan-2-yl]cyclohexanecarboxamide hydrochloride]", "values": [{"measurement": "aPTT", "setting": "human and animal plasma", "result": 0.36, "unit": "µmol/L"}, {"measurement": "IC50", "setting": "human factor XIa", "result": 7, "unit": "nM"}]}
{"smiles": "COCCOCCOCCNC(=O)c1cccc(-c2cc(C[C@H](NC(=O)[C@H]3CC[C@H](CN)CC3)C(=O)Nc3ccc(-c4nnn[nH]4)cc3)ccc2C)c1", "note": "[Example 18, 5′-[(2S)-2-({[trans-4-(Aminomethyl)cyclohexyl]carbonyl}amino)-3-oxo-3-{[4-(1H-tetrazol-5-yl)phenyl]amino}propyl]-N-{2-[2-(2-methoxyethoxy)ethoxy]ethyl}-2′-methylbiphenyl-3-carboxamide hydrochloride]", "values": [{"measurement": "aPTT", "setting": "human and animal plasma", "result": 0.4, "unit": "µmol/L"}, {"measurement": "IC50", "setting": "human factor XIa", "result": 5.7, "unit": "nM"}]}
{"smiles": "COCCOCCOCCNC(=O)c1ccc(C)c(-c2cccc(C[C@H](NC(=O)[C@H]3CC[C@H](CN)CC3)C(=O)Nc3ccc(-c4nnn[nH]4)cc3)c2)c1", "note": "[Example 20, 3′-[(2S)-2-({[trans-4-(Aminomethyl)cyclohexyl]carbonyl}amino)-3-oxo-3-{[4-(1H-tetrazol-5-yl)phenyl]amino}propyl]-N-{2-[2-(2-methoxyethoxy)ethoxy]ethyl}-6-methylbiphenyl-3-carboxamide hydrochloride]", "values": [{"measurement": "aPTT", "setting": "human and animal plasma", "result": 0.24, "unit": "µmol/L"}, {"measurement": "IC50", "setting": "human factor XIa", "result": 1.8, "unit": "nM"}]}
{"smiles": "Cc1ccc2[nH]ncc2c1-c1cccc(C[C@H](NC(=O)[C@H]2CC[C@H](CN)CC2)C(=O)Nc2ccc(-c3noc(=O)[nH]3)cc2)c1", "note": "[Example 87, N-alpha-{[trans-4-(Aminomethyl)cyclohexyl]carbonyl}-3-(5-methyl-1H-indazol-4-yl)-N-[4-(5-oxo-4,5-dihydro-1,2,4-oxadiazol-3-yl)phenyl]-L-phenylalaninamide hydrochloride]", "values": [{"measurement": "aPTT", "setting": "human and animal plasma", "result": 0.49, "unit": "µmol/L"}, {"measurement": "IC50", "setting": "human factor XIa", "result": 3.5, "unit": "nM"}]}
{"smiles": "Cc1ccc(C(=O)NC2C3CNCC32)cc1-c1cccc(C[C@H](NC(=O)C2CCC(CN)CC2)C(=O)Nc2ccc(-c3nnn[nH]3)cc2)c1", "note": "(stereo partly drawn) [Example 16, 3′-[(2S)-2-({[trans-4-(Aminomethyl)cyclohexyl]carbonyl}amino)-3-oxo-3-{[4-(1H-tetrazol-5-yl)phenyl]amino}propyl]-N-(3-azabicyclo[3.1.0]hex-6-yl)-6-methylbiphenyl-3-carboxamide hydrochloride]", "values": [{"measurement": "aPTT", "setting": "human and animal plasma", "result": 0.25, "unit": "µmol/L"}, {"measurement": "IC50", "setting": "human factor XIa", "result": 5.5, "unit": "nM"}]}
{"smiles": "CN1CCN(C(=O)c2cccc(-c3cccc(C[C@H](NC(=O)[C@H]4CC[C@H](CN)CC4)C(=O)Nc4ccc(-c5nnc(Cl)[nH]5)cc4)c3)c2)CC1", "note": "[Example 24, trans-4-(Aminomethyl)-N-[(2S)-1-{[4-(3-chloro-4H-1,2,4-triazol-5-yl)phenyl]amino}-3-{3′-[(4-methylpiperazin-1-yl)carbonyl]biphenyl-3-yl}-1-oxopropan-2-yl]cyclohexanecarboxamide hydrochloride]", "values": [{"measurement": "aPTT", "setting": "human and animal plasma", "result": 0.15, "unit": "µmol/L"}, {"measurement": "IC50", "setting": "human factor XIa", "result": 4.3, "unit": "nM"}]}
{"smiles": "NC[C@H]1CC[C@H](C(=O)N[C@@H](Cc2cccc(-c3ccc(C(=O)NCCN4CCCCC4)cc3)c2)C(=O)Nc2ccc(-c3nnn[nH]3)cc2)CC1", "note": "[Example 37, 3′-[(2S)-2-({[trans-4-(Aminomethyl)cyclohexyl]carbonyl}amino)-3-oxo-3-{[4-(1H-tetrazol-5-yl)phenyl]amino}propyl]-N-[2-(piperidin-1-yl)ethyl]biphenyl-4-carboxamide hydrochloride]", "values": [{"measurement": "aPTT", "setting": "human and animal plasma", "result": 0.19, "unit": "µmol/L"}, {"measurement": "IC50", "setting": "human factor XIa", "result": 5.6, "unit": "nM"}]}
